# Entries after “also recorded” stand apart in the source; their conditions may differ.
# What was measured:
# HepG2 cells = test: Shedding of ACE2 from HepG2 cells; format: cell-based; settings: endogenous ACE2, phorbol ester treatment, data not shown
# [1] = tested on: ACE2 release from the plasma membrane of CHO cells expressing full-length human ACE2; test: Shedding of ACE2 from Chinese hamster ovary cells (ACE2 activity in medium, QFS assay); format: cell-based; settings: PMA 1 μM, 4 hr incubation
# Protocol: ACE2 catalytic activity was measured by cleavage of a quenched fluorescent substrate (QFS), namely (7-methoxycoumarin-4-yl)-acetyl-Ala-Pro-Lys(2,4-dinitrophenyl) as published in Vickers et al, 2002. The substrate is kept as stock at 5 mg/ml (7.14 mM) at −20° C. in DMSO, diluted 14.28-fold in ACE2 buffer (100 mM Tris-HCl, 1 M NaCl, pH 6.5) for a 500 μM working stock for assay. Assays were performed in black 96-well microtiter plates with 100 μl/well sample and ACE2 buffer in a final volume of 200 μl per well. In a separate series of wells, 100 μl/well sample, […] ACE2 buffer, and 20 μl/well of the specific ACE2 activity inhibitor, MLN-4760 (Millenium Pharmaceuticals, Cambridge, Mass., USA) at 100 mM is added. 50 μM QFS (20 μl/well) is then added to all wells.
# Reactions proceeded at 37° C. within a temperature-controlled fluorescence microplate reader (FLUOStar Optima, BMG Labtech, Offenburg, Germany) and continuous readings of the liberated fluorescence taken over a 4 hr period (λex=320 nm, λem =405 nm). Specific ACE2 activity was calculated by subtraction of fluorescence in the presence of MLN-4760 inhibitor from the fluorescence in the absence of the MLN-4760 inhibitor.
# Full-length human ACE2 was expressed in Chinese hamster ovary (CHO) cells using a modified DEAE-Dextran transfection method. […]
structure (smiles),measurement,setting,value
CCCCCCCCCCCCCC(=O)O[C@@H]1[C@@H](C)[C@@]2(O)[C@@H](C=C(CO)C[C@]3(O)C(=O)C(C)=C[C@@H]23)[C@@H]2C(C)(C)[C@]12OC(C)=O [PMA],shedding of ACE2,HepG2 cells,increased up to two-fold
same,ACE2 release from the plasma membrane (ACE2 catalytic activity in medium),[1],increased; also recorded: enhanced
same,ACE2 release from the plasma membrane (ACE2 catalytic activity in medium),[1]; listed as phorbol ester,increased up to two-fold

# Reference: patent US20070042452A1, “Detection of plasma ACE2” (priority 2005, published 2007)
